From patent US20260234165A1, “MACROCYCLIC COMPOUNDS, PREPARATION METHOD THEREFOR, AND USE THEREOF” (GENFLEET THERAPEUTICS (SHANGHAI) INC., priority 2004, published 2026) come the findings set out here.

The data set can be described thus: Pharmacokinetic study in rats. In kind it is in vivo, Sprague-Dawley (SD) rats. To be noted: male SD rats; for CL / clearance: IV; for AUC / Cmax: PO (intragastric), dose 10 mg/kg. The text has this:
A total of 6 healthy adult male Sprague-Dawley (SD) rats were provided by Zhejiang Vital River Laboratory Animal Technology Co., Ltd. For each test compound, 6 healthy adult male SD rats were selected and randomly divided into 2 groups: an intravenous administration (IV) group and an intragastric administration (PO) group. The LC-MS/MS method was used to determine the drug concentrations in the plasma of rats at different time points after intravenous and intragastric administration of the test compounds. This experiment was intended to investigate the pharmacokinetic performance of the test compounds in rats and to evaluate the pharmacokinetic characteristics. Each drug used in the experiment was prepared from the test compound powder: An appropriate amount of test compound powder was weighed out, and appropriate amounts of DMSO, a 10% aqueous Solutol HS 15 solution, and a 6% aqueous HP-β-CD solution were sequentially added according to a volume ratio of 5:10:85. The mixture was vortexed and sonicated until clarification. The final concentration of the drug in the IV group was 0.5 mg/mL, and the final concentration of the drug in the PO group was 1 mg/mL; the concentrations could be adjusted according to actual needs. For the drug in the PO group of Z504, an appropriate amount of test compound powder was weighed out, and an appropriate amount of 0.5% MC+0.2% Tween 80 aqueous solution was added. The mixture was well mixed by vortexing to give a 1 mg/mL homogeneous suspension: the concentration could be adjusted according to actual needs.
All experimental rats were fasted overnight, and food intake was resumed 4 h after administration. For the rats in the IV group, the administration volume was set at 2 mL/kg, with Z554 and Z915 administered at a dose of 0.5 mg/kg and the other compounds at a dose of 1 mg/kg. For the rats in the PO group, the administration volume was 10 mL/kg and the dose was 10 mg/kg. The administration amount was adjusted according to the body weight of the rats on the day of administration. In the experiment, blood samples were collected from the rats in the IV group at multiple time points (0.0833 h, 0.25 h, 0.5 h, 1 h, 2 h, 4 h, 7 h, and 24 h) after administration, while blood samples were collected from the PO group at 0.25 h, 0.5 h, 1 h, 2 h, 4 h, 7 h, and 24 h after administration, with approximately 100 μL collected each time via the orbital blood collection method.
The blood samples were placed in centrifuge tubes containing EDTA-K2 and centrifuged at 8000 rpm for 4 min within 30 min to separate the supernatant plasma. The resulting plasma samples were stored at −20° C. for later use. For sample analysis, 20 μL of each of plasma samples and calibration standards was added to a 96-well plate, and 160 μL of acetonitrile containing 100 ng/mL tolbutamide was added. The samples were vortexed for 5 min for uniform mixing, and then centrifuged at 4000 rpm for 15 min. After the centrifugation was completed, 50 μL of supernatant was added to a 96-well plate containing 150 μL of deionized water. The plate was then sealed and shaken for uniform mixing. Sample analysis was performed by LC-MS/MS.
The sampling volume could be adjusted according to actual needs, but the final concentration should be kept unchanged.

Where [1] appears, read: Sprague-Dawley, rat, plasma, dose 0.5 mg/kg.
Where [2] appears, read: Sprague-Dawley, rat, plasma, read-out: AUC.
[3] abbreviates: Sprague-Dawley, rat, plasma, read-out: Cmax.
[4] abbreviates: Sprague-Dawley, rat, plasma, dose 1 mg/kg.

Molecules are shown by their SMILES. Where two headings read alike, the source gives them in different places.

Turning to `CCn1c(-c2cc(C#CCN(C)CCOC)cnc2[C@H](C)OC)c2c3cc(ccc31)-c1csc(n1)C[C@H](NC(=O)[C@H]1[C@H](C)[C@@H]1C)C(=O)N1CCC[C@H](N1)C(=O)OCC(C)(C)C2` (atropisomer, axis not shown; (Ra)) [Compound Z788], the “AUC” value was 8529 ng·h/mL and the “Cmax” value was 2110 ng/mL. For the same compound, where the note is “dose 1 mg/kg”, the “CL” value was found to be 3.58 mL/min/kg.
`CCn1c(-c2cc(C#CCN3CCCOCC3)cnc2[C@H](C)OC)c2c3cc(ccc31)-c1csc(n1)C[C@H](NC(=O)CC1CC1)C(=O)N1CCC[C@H](N1)C(=O)OCC(C)(C)C2` (atropisomer, axis not shown; (Ra)) [Compound Z915]: the clearance under setting [1] stood at 6 mL/min/kg. For the same compound, under setting [2], the exposure (AUC) came out at 6840 ng·h/mL. In addition, under setting [3], the maximum concentration (Cmax) came out at 1730 ng/mL.
For the compound `CCn1c(-c2cc(C#CCN3CCN(C)C(=O)C3)cnc2[C@H](C)OC)c2c3cc(ccc31)-c1csc(n1)C[C@H](NC(=O)[C@H]1[C@H](C)[C@@H]1C)C(=O)N1CCC[C@H](N1)C(=O)OCC(C)(C)C2` (atropisomer, axis not shown; (Ra)) [Compound Z793], the clearance under setting [4] stood at 3.16 mL/min/kg. Further, the AUC under setting [2] worked out at 5920 ng·h/mL. The Cmax under setting [3] worked out at 2040 ng/mL.
Regarding `CCn1c(-c2cc(C#CCN3CCCOCC3)cnc2[C@H](C)OC)c2c3cc(ccc31)-c1csc(n1)C[C@H](NC(=O)[C@H]1C[C@@H]1C)C(=O)N1CCC[C@H](N1)C(=O)OCC(C)(C)C2` (single isomer, unassigned) [Compound Z604], the clearance under setting [4] is 2.46 mL/min/kg. The AUC under setting [2] stood at 14600 ng·h/mL. Moreover, the Cmax under setting [3] was 3010 ng/mL.
Take `CCn1c(-c2cc(C#CCN3C4CCC3COC4)cnc2[C@H](C)OC)c2c3cc(ccc31)-c1csc(n1)C[C@H](NC(=O)[C@H]1[C@H](C)[C@@H]1C)C(=O)N1CCC[C@H](N1)C(=O)OCC(C)(C)C2` (atropisomer, axis not shown; (Ra)) [Compound Z711, (1r,2R,3S)—N-((6^3S,4S,Z)—(Ra)-1^2-(5-(3-(3-oxa-8-azabicyclo[3.2.1]octan-8-yl)prop-1-yn-1-yl)-2-((S)-1-methoxyethyl)pyridin-3-yl)-1^1-ethyl-10,10-dimethyl-5,7-dioxo-6^1,6^2,6^3,6^4,6^5,6^6-hexahydro-1^1H-8-oxa-2(4,2)-thiazola-1(5,3)-indola-6(1,3)-pyridazinacycloundecaphane-4-yl)-2,3-dimethylcyclopropane-1-carboxamide]: the “AUC” value stood at 8876 ng·h/mL and the highest concentration (Cmax) turned out to be 1867 ng/mL. Under “dose 1 mg/kg”, the “CL” value worked out at 3.82 mL/min/kg.
`CCn1c(-c2cc(C#C[C@@H]3COCCN3C)cnc2[C@H](C)OC)c2c3cc(ccc31)-c1csc(n1)C[C@H](NC(=O)[C@H]1[C@H](C)[C@@H]1C)C(=O)N1CCC[C@H](N1)C(=O)OCC(C)(C)C2` (atropisomer, axis not shown; (Ra)) [Compound Z672, (1r,2R,3S)—N-((6^3S,4S,Z)-1^1-ethyl-(Ra)-1^2-(2-((S)-1-methoxyethyl)-5-(((R)-4-methylmorpholin-3-yl)ethynyl)pyridin-3-yl)-10,10-dimethyl-5,7-dioxo-6^1,6^2,6^3,6^4,6^5,6^6hexahydro-1^1H-8-oxa-2(4,2)-thiazola-1(5,3)-indola-6(1,3)-pyridazinacycloundecaphane-4-yl)-2,3-dimethylcyclopropane-1-carboxamide]: the clearance under setting [4] came to 11.8 mL/min/kg. In addition, the AUC under setting [2] turned out to be 2940 ng·h/mL. The Cmax under setting [3] worked out at 738 ng/mL.
Regarding `CO[C@@H](C)c1ncc(C#CCN2CCCOCC2)cc1-c1c2c3cc(ccc3n1CC(F)(F)F)-c1csc(n1)C[C@H](NC(=O)[C@H]1[C@H](C)[C@@H]1C)C(=O)N1CCC[C@H](N1)C(=O)OCC(C)(C)C2` (atropisomer, axis not shown; (Ra)) [Compound Z700, N-((6^3S,4S,Z)-1^1-(2,2,2-trifluoroethyl)-(Ra)-1^2-(2-((S)-1-methoxyethyl)-(5-(3-(1,4-oxazepan-4-yl)prop-1-yn-1-yl))-pyridin-3-yl)-10,10-dimethyl-5,7-dioxo-6^1,6^2,6^3,6^4,6^5,6^6-hexahydro-1^1H-8-oxa-2(4,2)-thiazola-1(5,3)-indola-6(1,3)-pyridazinacycloundecaphane-4-yl)-2,3-dimethylcyclopropane-1-carboxamide], the “AUC” value stood at 3259 ng·h/mL and the “Cmax” value stood at 681 ng/mL. For the same compound, the “CL” value (dose 1 mg/kg) stood at 7.66 mL/min/kg.
In turn, `CCn1c(-c2cc(C#CCN3CCC3)cnc2[C@H](C)OC)c2c3cc(ccc31)-c1csc(n1)C[C@H](NC(=O)[C@H]1[C@H](C)[C@@H]1C)C(=O)N1CCC[C@H](N1)C(=O)OCC(C)(C)C2` (single isomer, unassigned) [Compound Z554] had a clearance under setting [1] of 2.52 mL/min/kg. The exposure (AUC) under setting [2] amounted to 16600 ng·h/mL. The maximum concentration (Cmax) under setting [3] is 2780 ng/mL.
`CCn1c(-c2cc(C#CCN3CCOC[C@H]3C)cnc2[C@H](C)OC)c2c3cc(ccc31)-c1csc(n1)C[C@H](NC(=O)[C@H]1[C@H](C)[C@@H]1C)C(=O)N1CCCC(N1)C(=O)OCC(C)(C)C2` (atropisomer, axis not shown; (Ra)) [Compound Z813]: the “AUC” value stood at 1643 ng·h/mL and the peak concentration (Cmax) is listed as 401 ng/mL. Besides, the “CL” value (dose 1 mg/kg) is reported as 14.9 mL/min/kg.
Under setting [4], `CCn1c(-c2cc(C#CCN3CCCOCC3)cnc2[C@H](C)OC)c2c3cc(ccc31)-c1csc(n1)C[C@H](NC(=O)[C@H]1[C@H](C)[C@@H]1C)C(=O)N1CCC[C@H](N1)C(=O)OCC(C)(C)C2` (single isomer, unassigned) [Compound Z504] gave a clearance of 4 mL/min/kg. The AUC under setting [2] came out at 5320 ng·h/mL. In addition, the Cmax under setting [3] amounted to 605 ng/mL.
The corresponding values for `CCn1c(-c2cc(C#CCN3CCCOCC3)cnc2[C@H](C)OC)c2c3cc(ccc31)-c1csc(n1)C[C@H](NC(=O)CC(C)C)C(=O)N1CCC[C@H](N1)C(=O)OCC(C)(C)C2` (single isomer, unassigned) [Compound Z803] are 1.83 mL/min/kg, 8400 ng·h/mL and 1110 ng/mL.

What is called AUC is concentration integrated over time. What is called Cmax is the highest concentration seen after dosing. In general, clearance refers to the rate of elimination divided by the concentration.
